Results reported in patent US20210338648A1, “METHODS AND COMPOSITIONS FOR REDUCING SERUM URIC ACID” (AstraZeneca AB, priority 2018, published 2021).
Entries after “also recorded” stand apart in the source; their conditions may differ.

Assays:
[1] = Phase 2 crossover study: serum uric acid (sUA) after 7 days of treatment; format: in vivo, human; conditions: dapagliflozin added to verinurad + febuxostat; D7
From the text: (§1) Thirty-six asymptomatic hyperuricemic patients aged 18 to 65 years (inclusive) were enrolled into this study at two study centers. Twenty-four patients were enrolled and completed the study. Due to inadequate urine sampling, 12 additional patients were included to ensure an adequate sample size (at least 20 evaluable patients) to evaluate the effects of intensive UA lowering with verinurad, febuxostat and dapagliflozin on urinary excretion of UA. With 24 completers available during the interim analysis, this will provide for a total sample size of 36 evaluable patients.
• 1. […] At screening: One sUA assessment. […] Area under plasma concentration time curve over a dosing interval (24 hours) (AUCτ) assessment for verinurad and its main metabolites, febuxostat, and dapagliflozin [Time Frame: On Treatment Period 1 and 2: Day 7 (Pre-dose and 15 minutes, 30 minutes, 1 hour, 1.5, 2, 3, 4, 8, 12 and 24 hours post-dose)] • To assess AUCT after administration of single oral fixed dose of verinurad+febuxostat+dapagliflozin/placebo • 3. […]

[2] = Phase 2 crossover study: urinary excretion of uric acid (uUA); format: in vivo, human
From the text: Thirty-six asymptomatic hyperuricemic patients aged 18 to 65 years (inclusive) were enrolled into this study at two study centers. Twenty-four patients were enrolled and completed the study. Due to inadequate urine sampling, 12 additional patients were included to ensure an adequate sample size (at least 20 evaluable patients) to evaluate the effects of intensive UA lowering with verinurad, febuxostat and dapagliflozin on urinary excretion of UA. With 24 completers available during the interim analysis, this will provide for a total sample size of 36 evaluable patients. Before any study specific assessments were performed, potential patients provided informed consent. Each patient underwent the below mentioned visits: • A Screening period of maximum 28 days; • Two treatment periods during which patients were resident in the Clinical Unit from Day −2 to Day 1 and from Day 6 to Day 8; and • A Follow-up Visit within 14 to 28 days after the first administration of Investigational Medicinal Product (IMP) in Treatment Period 2. […] Treatment Period 1 and Treatment Period 2 were separated by a washout period of 7 to 21 days. • 1.

[3] = co-administration, Day 7
Experimental: This study was a randomized, placebo controlled, double-blind, 2-way crossover study conducted on asymptomatic hyperuricemic patients.
On Day −2 of Treatment period 1, patients were randomized (1:1) to 1 of 2 treatment sequences (AB or BA). […] On Day 1, after all dosing and all assessments were performed, patients received instruction to administer the IMP at home once daily in the morning from Day 2 to Day 6 and the IMP dispensed for home dosing. Patients returned to the Clinical Unit on Day 6 and were residential in the Clinical Unit from Day 6 to Day 8.

[4] = Phase 2 crossover study: safety and tolerability (adverse events, serum creatinine, serum sodium); format: in vivo, human; conditions: Grp1 vs Grp2
From the text: as §1, with “patients. […] At screening: One sUA assessment. […] On Treatment Period 1 and 2: […] On Treatment Period 1 and 2: […] Systolic blood pressure [SBP] […] Diastolic blood pressure [DBP]” for “patients.”

Compound: CCOc1ccc(Cc2cc([C@@H]3O[C@H](CO)[C@@H](O)[C@H](O)[C@H]3O)ccc2Cl)cc1 [dapagliflozin]
- sUA levels (result in words) [1]: significantly reduced; also recorded: additional sUA lowering
- peak uUA excretion (result in words) ([2]; dapagliflozin 10 mg/day added to verinurad 9 mg/day + febuxostat 80 mg/day, D7): no increase; also recorded: without an increase in uUA excretion
- total 24 h uUA excretion (result in words) ([2]; dapagliflozin added to verinurad + febuxostat vs placebo, 24 h urine, all subjects): no difference
- effect on febuxostat pharmacokinetics [3]: did not affect
- effect on verinurad pharmacokinetics [3]: did not affect
- serum creatinine (sCr), between-group difference [4]: without an increase in uUA excretion, or changes in sCr
